Data taken from patent US20050154010A1 (The Regents of University of California, priority 2002, published 2005).
Where a name gives a salt, the structure may show the parent alone.

Assays:
[1] = test system: Chronic lymphocytic leukemia cells (CLL); assay: Flow cytometry (propidium iodide, DiOC6) of CLL cells after 24 hours exposure; type: cell-based, human; settings: 10 μM, FIG. 2
Protocol: After 24 hours exposure, the percentage of living (lower-right corner), apoptotic (lower-left corner) and dead (higher-left corner) were analyzed by flow cytometry using propidium iodide (y axis) and DiOC6 (x axis). The results, showing the activity of the (+) and (−) enantiomers against CLL cells, are seen in FIG. 2.

[2] = in vivo; cited from earlier work
[3] = cited from earlier work
[4] = test system: Chronic lymphocytic leukemia cells (CLL); assay: Viable CLL cells after 48 hours exposure, dye exclusion and flow cytometric analysis; type: cell-based, human
Protocol: (§1) After 48 hours exposure, the number of viable cells was determined by dye exclusion and flow cytometric analysis.

[5] = test system: 60 human tumor cell lines; assay: cells; type: cell-based
Text: The operation of this screen utilizes 60 different human tumor cell lines, representing leukemia, melanoma, and cancers of the lung, colon, brain, ovary, breast, prostate, and kidney. The aim is to prioritize for further evaluation, synthetic compounds or natural product samples showing selective growth inhibition or cell killing of particular tumor cell lines. This screen is unique in that the complexity of a 60-cell line dose response produced by a given compound results in a biological response pattern which can be utilized in pattern recognition algorithms. Using these algorithms, it is possible to assign a putative mechanism of action to a test compound, or to determine that the response pattern is unique and not similar to that of any of the standard prototype compounds included in the NCI database (see DTP Overview tab). In addition, following characterization of various cellular molecular targets in the 60 cell lines, it may be possible to select compounds most likely to interact with a specific molecular target.
(§2) The human tumor cell lines of the cancer screening panel are grown in RPMI 1640 medium containing 5% fetal bovine serum and 2 mM L-glutamine. For a typical screening experiment, cells are inoculated into 96 well microtiter plates in 100 μL at plating densities ranging from 5,000 to 40,000 cells/well depending on the doubling time of individual cell lines. After cell inoculation, the microtiter plates are incubated at 37° C., 5% CO2, 95% air and 100% relative humidity for 24 h prior to addition of experimental drugs. After 24 h, two plates of each cell line are fixed iin situ with TCA, to represent a measurement of the cell population for each cell line at the time of drug addition (Tz).
Experimental drugs are solubilized in dimethyl sulfoxide at 400-fold the desired final maximum test concentration and stored frozen prior to use. […]
Cells are fixed in situ by the gentle addition of 50 μl of cold 50% (w/v) TCA (final concentration, 10% TCA) and incubated for 60 minutes at 4° C. […] Bound stainis subsequently solubilized with 10 mM trizma base, and the absorbance is read on an automated plate reader at a wavelength of 515 nm. […] Using the seven absorbance measurements [time zero, (Tz), control growth, (C), and test growth in the presence of drug at the five concentration levels ( ? )], tile percentage growth is calculated at each of the drug concentrations levels. Percentage growth inhibition is calculated as: [(Ti−Tz)/(C−Tz)]×100 for concentrations for which Ti>/=Tz [(Ti−Tz)/Tz]×100 for concentrations for which Ti<Tz
Three dose-response parameters are calculated for each experimental agent. […]

CAK-1 = assay: NCI In Vitro Cell Line Screening; type: cell-based; settings: Homo sapiens; CAK-1, Renal Cell Carcinoma
Protocol: as §2
(§3) Experimental drugs are solubilized in dimethyl sulfoxide at 400-fold the desired final maximum test concentration and stored frozen prior to use. At the time of drug addition, an aliquot of frozen concentrate is thawed and diluted to twice the desired final maximum test concentration with complete medium containing 50 μg/ml gentamicin. Additional four, 10-fold or ½ log serial dilutions are made to provide a total of five drug concentrations plus control. Aliquots of 100 μl of these different drug dilutions are added to the appropriate microtiter wells already containing 100 μl of medium, resulting in the required final drug concentrations. Following drug addition, the plates are incubated for an additional 48 h at 37° C., 5% CO2, 95% air, and 100% relative humidity. For adherent cells, the assay is terminated by the addition of cold TCA.
(§4) Cells are fixed in situ by the gentle addition of 50 μl of cold 50% (w/v) TCA (final concentration, 10% TCA) and incubated for 60 minutes at 4° C. The supernatant is discarded, and the plates are washed five times with tap water and air-dried. Sulforhodamine B (SRB) solution (100 μl) at 0.4% (w/v) in 1% acetic acid is added to each well, and plates are incubated for 10 minutes at room temperature. After staining, unbound dye is removed by washing five times with 1% acetic acid and the plates are air dried. Bound stainis subsequently solubilized with 10 mM trizma base, and the absorbance is read on an automated plate reader at a wavelength of 515 nm. For suspension cells, the methodology is the same except that the assay is terminated by fixing settled cells at the bottom of the wells by gently adding 50 μl of 80% TCA (final concentration, 16% TCA). Using the seven absorbance measurements [time zero, (Tz), control growth, (C), and test growth in the presence of drug at the five concentration levels ( ? )], tile percentage growth is calculated at each of the drug concentrations levels. Percentage growth inhibition is calculated as: [(Ti−Tz)/(C−Tz)]×100 for concentrations for which Ti>/=Tz [(Ti−Tz)/Tz]×100 for concentrations for which Ti<Tz
(§5) Three dose-response parameters are calculated for each experimental agent. Growth inhibition of 50% (GI50) is calculated from [(Ti−Tz)/(C−Tz)]×100=50, which is the drug concentration resulting in a 50% reduction in the net protein increase (as measured by SRB staining) in control cells during the drug incubation. The drug concentration resulting in total growth inhibition (TGI) is calculated from Ti=Tz. The LC50 (concentration of drug resulting in a 50% reduction in the measured protein at the end of the drug treatment as compared to that at the beginning) indicating a net loss of cells following treatment is calculated from [(Ti−Tz)/Tz]×100=−50. Values are calculated for each of these three parameters if the level of activity is reached; however, if the effect is not reached or is exceeded, the value for that parameter is expressed as greater or less than the maximum or minimum concentration tested.

HCC-2998 = assay: NCI In Vitro Cell Line Screening; type: cell-based; settings: Homo sapiens; HCC-2998, Colon Cancer
Protocol: as §2, §3, §4, §5

LOX IMVI = assay: NCI In Vitro Cell Line Screening; type: cell-based; settings: Homo sapiens, Melanoma
Protocol: as §2, §3, §4, §5

NCI-H23 = assay: NCI In Vitro Cell Line Screening; type: cell-based; settings: Homo sapiens; NCI-H23, Non-Small Cell Lung Cancer
Protocol: as §2, §3, §4, §5

NCI-H460 = assay: NCI In Vitro Cell Line Screening; type: cell-based; settings: Homo sapiens; NCI-H460, Non-Small Cell Lung Cancer
Protocol: as §2, §3, §4, §5

OVCAR-4 = assay: NCI In Vitro Cell Line Screening; type: cell-based; settings: Homo sapiens; OVCAR-4, Ovarian Carcinoma
Protocol: as §2, §3, §4, §5

RXF 393 = assay: NCI In Vitro Cell Line Screening; type: cell-based; settings: Homo sapiens; RXF 393, Renal Cell Carcinoma
Protocol: as §2, §3, §4, §5

SK-MEL-5 = assay: NCI In Vitro Cell Line Screening; type: cell-based; settings: Homo sapiens; SK-MEL-5, Melanoma
Protocol: as §2, §3, §4, §5

[6] = in vivo; cited from earlier work; remark: listed apart in the source
CLL cells = settings: Lagneaux et al. 2001; not feasible in vivo due to toxicity; cited from earlier work
[7] = test system: peripheral blood T lymphocytes; settings: Meng et al. 1997; cited from earlier work
10C9 = assay: MTT assay, cell viability; type: cell-based; settings: 10C9, Lymphoma, 72 hours exposure
Protocol: (§6) After 72 hours exposure, the viability of the cells was determined by the rate of conversion of the formazan salt measuring the optical density (OD) at 570 nm (MTT assay).

HCT-116 = assay: MTT assay, cell viability; type: cell-based; settings: HCT-116, Colon, 72 hours exposure
Protocol: as §6

LNCap = assay: MTT assay, cell viability; type: cell-based; settings: Prostate, 72 hours exposure
Protocol: as §6

MCF7 = assay: MTT assay, cell viability; type: cell-based; settings: MCF7, Breast, 72 hours exposure
Protocol: as §6

MDA-231 = assay: MTT assay, cell viability; type: cell-based; settings: MDA-231, Breast, 72 hours exposure
Protocol: as §6

RAJI = assay: MTT assay, cell viability; type: cell-based; settings: Lymphoma, 72 hours exposure
Protocol: as §6

RPMI8226 = assay: MTT assay, cell viability; type: cell-based; settings: RPMI8226, Myeloma, 72 hours exposure
Protocol: as §6

SU-DHL1 = assay: MTT assay, cell viability; type: cell-based; settings: SU-DHL1, Lymphoma, 72 hours exposure
Protocol: as §6

SU-DHL9 = assay: MTT assay, cell viability; type: cell-based; settings: SU-DHL9, Lymphoma, 72 hours exposure
Protocol: as §6

U266 = assay: MTT assay, cell viability; type: cell-based; settings: U266, Myeloma, 72 hours exposure
Protocol: as §6

[8] = cited from earlier work; remark: listed apart in the source
[9] = test system: control normal lymphocytes (PBL); assay: Viable normal lymphocytes after 48 hours exposure, dye exclusion and flow cytometric analysis; type: cell-based, human; settings: 10 μM
Protocol: as §1

For O[C@H](c1cc(C(F)(F)F)nc2c(C(F)(F)F)cccc12)[C@@H]1CCCCN1 [(+)-mefloquine], the “activity against CLL cells” value [1] is listed as “activity” and the “passage of the blood brain barrier / accumulation in the brain” value [2] is listed as “accumulate in the brain”.

In the case of “2,8-bis-trifluorornethyl-4-quinoline carboxylic acid [Metabolite]”, the “level accumulated in the plasma” value ([3]; plasma) is given as “up to 10 μM”, the “Mean (SD) trough concentration, Plasma” value ([3]; plasma, ten healthy volunteers, 250 mg once weekly for 16 weeks, steady state at week 16) is given as 9.80 (5.07) μmol · 1^−1 and the “Mean (SD) trough concentration, Serum” value ([3]; serum, ten healthy volunteers, 250 mg once weekly for 16 weeks, steady state at week 16) is given as 9.44 (5.00) μmol · 1^−1. For the same compound, the “Mean (SD) trough concentration, Whole Blood” value ([3]; whole blood, ten healthy volunteers, 250 mg once weekly for 16 weeks, steady state at week 16) was 4.89 (2.58) μmol · 1^−1.

For O[C@H](c1cc(C(F)(F)F)nc2c(C(F)(F)F)cccc12)[C@@H]1CCCCN1 (racemic) [Mefloquine, (R*,S*)-(±)-alpha-2-piperidinyl-2,8-bis(trifluoromethyl)-4-quinolinemethanol], the “concentration effective against CLL cells” value [4] was at most 10 µM, the CC50 ([5]; Homo sapiens, 48 h, read-out: Mean LC50) was 87 µM and the GI50 ([5]; Homo sapiens, mean over 60 tumor cell lines, 48 h, SRB) was 4 µM. The “Mean TGI50” value ([5]; mean over 60 tumor cell lines, 48 h, SRB) was 26 µM, the “number of the 60 cell lines against which active” value ([5]; of the 60 cell lines in the screen) was 58 and the GI50 (CAK-1) was 0.1 µM. The GI50 (HCC-2998) was 2 µM, the GI50 (LOX IMVI) was 1.3 µM and the GI50 (NCI-H23) was 2.8 µM. The GI50 (NCI-H460) was 2.1 µM, the GI50 (OVCAR-4) was 1.9 µM and the GI50 (RXF 393) was 1.7 µM. For the same compound, the GI50 (SK-MEL-5) was 2 µM and the bioavailability [6] was 80%.

In the case of CCN(CCO)CCCC(C)Nc1ccnc2cc(Cl)ccc12 (centres unmarked) [hydroxychloroquine], the “concentration active against CLL cells” value (CLL cells) is listed as at least 30 µg/mL and the “apoptosis induction in peripheral blood T lymphocytes” value [7] is listed as “induce apoptosis”.

In the case of OC(c1cc(C(F)(F)F)nc2c(C(F)(F)F)cccc12)C1CCCCN1 (single isomer, unassigned; (-)) [(−)Mefloquine], the “activity against CLL cells” value [1] is reported as “activity”, the IC50 (10C9) is reported as 20 µM and the IC50 (HCT-116) is reported as 12 µM. For the same compound, the IC50 (LNCap) was 25 µM, the IC50 (MCF7) was 20 µM and the IC50 (MDA-231) was 40 µM. For the same compound, the IC50 (RAJI) was 30 µM, the IC50 (RPMI8226) was 15 µM and the IC50 (SU-DHL1) was 20 µM. The IC50 (SU-DHL9) was 15 µM, the IC50 (U266) was 25 µM and the “passage of the blood brain barrier / accumulation in the brain” value [2] was “does not seem to pass the blood brain barrier”.

In the case of OC(c1cc(C(F)(F)F)nc2c(C(F)(F)F)cccc12)C1CCCCN1 (centres unmarked) [Mefloquine hydrochloride], the solubility in ethanol ([8]; ethanol) is listed as “soluble” and the solubility in water ([8]; water) is listed as “slightly soluble”.

In the case of O[C@H](c1cc(C(F)(F)F)nc2c(C(F)(F)F)cccc12)[C@@H]1CCCCN1 (relative stereo) [Mefloquine, (R*,S*)-(±)-alpha-2-piperidinyl-2,8-bis(trifluoromethyl)-4-quinolinemethanol], the “apoptosis induction in CLL cells” value ([4]; 10 μM, 48 hours exposure) is reported as “inducing potent apoptosis” and the “apoptosis induction in normal lymphocytes” value [9] is reported as “not against normal lymphocytes”.
